As a reminder, the EC50 is the concentration at which the effect is half-maximal.

Where only a bound is given, the exact number is not on record here.

From patent publication US9796713B2, “Tricyclic compounds as alpha-7 nicotinic acetylcholine receptor ligands” (BRISTOL-MYERS SQUIBB COMPANY, priority 2014, dated 2017) come the findings set out here.

T1 sequence (Q05941 23-502): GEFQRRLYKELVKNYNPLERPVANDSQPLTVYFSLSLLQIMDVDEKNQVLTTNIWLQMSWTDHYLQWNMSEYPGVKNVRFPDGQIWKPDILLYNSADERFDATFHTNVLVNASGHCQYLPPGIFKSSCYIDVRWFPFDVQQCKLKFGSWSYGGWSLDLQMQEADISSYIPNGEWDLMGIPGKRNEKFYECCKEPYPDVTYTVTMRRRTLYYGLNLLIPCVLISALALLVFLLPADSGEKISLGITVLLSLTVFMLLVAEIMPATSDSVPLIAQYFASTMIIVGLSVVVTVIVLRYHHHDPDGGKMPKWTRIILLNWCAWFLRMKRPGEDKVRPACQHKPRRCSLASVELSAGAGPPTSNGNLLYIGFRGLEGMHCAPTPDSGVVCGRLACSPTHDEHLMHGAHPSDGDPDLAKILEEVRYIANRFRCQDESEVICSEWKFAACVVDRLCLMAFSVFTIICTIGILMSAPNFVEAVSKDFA

One test concerns the target T1, α7-HI (Rattus norvegicus, UniProt Q05941).
T1 construct: expressed in transfected cells
Nature of the test: FLIPR Ca2+-sensitive fluorescence assay, α7-HI (agonist activity) in HEK 293 cells. It counts as cell-based.
Conditions: not given
As for the experimental part: I) α7 Nicotinic Acetycholine Receptor Binding. Membranes were prepared for binding using HEK293 cells stably expressing the rat α7 nicotinic acetycholine receptor (rat α7 nAChR). Cells were homogenized at 4° C. in hypotonic lysis buffer consisting of 10 mM Tris (pH 7.4), 5 mM EDTA and protease inhibitors and centrifuged at 32000×g for 20 minutes. The pellet was washed once in membrane wash buffer consisting of 50 mM Tris (pH 7.4), 1 mM EDTA and protease inhibitors and centrifuged at 32000×g for 20 minutes. This pellet was then resuspended in assay buffer consisting 50 mM KH2PO4 (pH 7.4 at 25° C.), 1 mM EDTA, 0.005% Triton-X 100 and 0.1% (v/v) Sigma Protease Inhibitor Cocktail. Aliquots were then frozen in dry ice/ethanol and kept at −80° C. until the day of the assay. II) A Ca^2+-Sensitive, Fluorescence-Based Assay α-7 for Nicotinic Acetylcholine Receptor Channel Function in Mammalian Cells (“FLIPR”). Summary: Lead compounds are evaluated for agonist activity at α-7, α3β4, α4αβ2, and α1β1δ1ε sub-types of nicotinic ACh receptor ion channels expressed in mammalian HEK 293 cells. Agonist potency and efficacy values are determined from kinetic fluorescence Ca^2+ influx measurements made using a 384 well FLIPR (Fluorescence Image Plate Reader). […] In this assay, channel expressing HEK cell lines seeded in 384 well assay plates are loaded with a membrane permeant fluorescent Ca^2+ indicator dye, whose 510 nm green emission signal increases in response to elevation of intracellular Ca^2+ concentration. The basal fluorescence from the cells is monitored in real time, followed by the acute addition of test compounds.
Materials and Methods: Reagents: The acetomethoxy (AM) ester of the Ca^2+ indicator dye Fluo-4 was obtained from InVitrogen, (Carlsbad, Calif.). Acetylcholine and all buffer constituents were purchased from Sigma Chemical Company, St. Louis, Mo. G418 and Minimal Essential Medium were purchased from InVitrogen Life Technologies, Carlsbad, Calif. Fetal bovine serum was purchased from (InVitrogen, Carlsbad, Calif.).
Cell Culture: HEK-293 cells were grown in Minimal Essential Medium containing 10% (v/v) fetal bovine serum at 37° C. in a 5% CO2 incubator. HEK-293 cells stably expressing the ion channels were grown in the same medium with the addition of 500 μg/ml G418.
Ca^2+ flux assays of Ca^2+ channels expressed in HEK-293 cells: HEK-293 cells expressing the ion channels of interest were plated in 384 well, black-walled, clear-bottomed, poly-D-lysine coated plates at a density of ˜20,000 cells/well in 20 μl of Minimal Essential Medium containing 10% (v/v) fetal bovine serum and incubated for 2 days at 29° C. in a 5% CO2 incubator. Prior to assay, cells were loaded with the Fluo-4 AM ester. […] Dye loading was allowed to proceed for 90 minutes at room temperature at which time the dye loading solution was removed and replaced with 40 μl/well of Hanks buffer. Cells loaded with dye were loaded onto a FLIPR384 (Molecular Devices, Sunnyvale, Calif.). Fluo-4 dye was excited using the 488 nm line of an argon laser. Emission was filtered using a 540+/−30 nm bandpass filter. For evaluation of the effects of test compounds using the Ca^2+ flux assay, compounds to be tested were provided in assay ready plates. For nicotinic receptor ion channel expressing cells, the assay was initiated by the addition of 20 μl/well of Hanks buffer containing test compounds. For all assays, data were collected at 1 Hz for 10 seconds (baseline), at which time the compound containing stimulus buffers are added, and further measurements collected at 0.33 Hz for 3 min.
Data Analysis: The statistical robustness of the nicotinic receptor Ca^2+ flux assays is determined from blanks and totals wells. […] The raw fluorescence units data files generated on the FLIPR plate reader are automatically exported and processed by in-house data analysis tools.
Consider `O=C(c1n[nH]c2ccccc12)N1[C@@H]2C[C@H]3C[N@](CC[C@H]31)C2` [Example 34b, ((2R,3aS,5S,7aR)-hexahydro-2,5-methanopyrrolo[3,2-c]pyridin-1(6H)-yl)(1H-indazol-3-yl)methanone], for which a half-maximal effect (EC50) was put at 250 nM.

The test is the same for the next values; noted with them: Table 4; Ca2+ flux, HEK-293 cells expressing the channel; read-out: FLIPR α7-HI (EC50).
Consider `Cc1ccc2c(C(=O)N3C4CC5CN(CCC53)C4)n[nH]c2c1` (stereo not drawn) [Example 49, ((2S*,3aR*,5R*,7aS*)-(6-methyl-1H-indazol-3-yl)(hexahydro-2,5-methanopyrrolo[3,2-c]pyridin-1(6H)-yl)methanone], for which the EC50 was found to be 4.2 nM.
The same measure, in the same setting: then `O=C(c1n[nH]c2cc(Cl)ccc12)N1C2CC3CN(CCC31)C2` (stereo not drawn) [Example 46, ((2S*,3aR*,5R*,7aS*)-(6-chloro-1H-indazol-3-yl)(hexahydro-2,5-methanopyrrolo[3,2-c]pyridin-1(6H)-yl)methanone], with 10 nM; and `Cn1nc(C(=O)N2C3CC4CN(CCC42)C3)c2ccccc21` (stereo not drawn) [Example 37, ((2S*,3aR*,5R*,7aS*)-(hexahydro-2,5-methanopyrrolo[3,2-c]pyridin-1(6H)-yl)(1-methyl-1H-indazol-3-yl)methanone], with greater than 100000 nM; and `O=C(c1n[nH]c2ccc(Cl)cc12)N1C2CC3CN(CCC31)C2` (stereo not drawn) [Example 40, ((2S*,3aR*,5R*,7aS*)-(5-chloro-1H-indazol-3-yl)(hexahydro-2,5-methanopyrrolo[3,2-c]pyridin-1(6H)-yl)methanone], with 79 nM.
Still for that read-out and setting: then `Cn1cc(C(=O)N2C3CC4CN(CCC42)C3)c2ccccc21` (stereo not drawn) [Example 39, ((2S*,3aR*,5R*,7aS*)-(hexahydro-2,5-methanopyrrolo[3,2-c]pyridin-1(6H)-yl)(1-methyl-1H-indol-3-yl)methanone], with greater than 100000 nM.
Same read-out and setting: then `Cc1ccc2c(C(=O)N3[C@@H]4C[C@H]5C[N@](CC[C@H]53)C4)n[nH]c2c1` [Example 49b, (2R,3aS,5S,7aR)-(6-methyl-1H-indazol-3-yl)(hexahydro-2,5-methanopyrrolo[3,2-c]pyridin-1(6H)-yl)methanone], with 47 nM; and `Cc1ccc2c(C(=O)N3[C@H]4C[C@@H]5C[N@@](CC[C@@H]53)C4)n[nH]c2c1` [Example 49a, (2S,3aR,5R,7aS)-(6-methyl-1H-indazol-3-yl)(hexahydro-2,5-methanopyrrolo[3,2-c]pyridin-1(6H)-yl)methanone], with 3.1 nM; and `COc1cccc2[nH]nc(C(=O)N3C4CC5CN(CCC53)C4)c12` (stereo not drawn) [Example 48, ((2S*,3aR*,5R*,7aS*)-(4-methoxy-1H-indazol-3-yl)(hexahydro-2,5-methanopyrrolo[3,2-c]pyridin-1(6H)-yl)methanone], with 7400 nM.
For `O=C(c1n[nH]c2c(Cl)cccc12)N1C2CC3CN(CCC31)C2` (stereo not drawn) [Example 45, ((2S*,3aR*,5R*,7aS*)-(7-chloro-1H-indazol-3-yl)(hexahydro-2,5-methanopyrrolo[3,2-c]pyridin-1(6H)-yl)methanone], the concentration for a half-maximal effect (EC50) is greater than 100000 nM.

Still in this test, the particulars now being: Table 5; Ca2+ flux, HEK-293 cells expressing the channel; read-out: FLIPR α7-HI (EC50).
On to `O=C(c1n[nH]c2ccccc12)N1C2CC3C1CCCN3C2` (stereo not drawn) [Example 50, (1H-indazol-3-yl)(octahydro-2,8-epiminoindolizin-9-yl)methanone], for which the half-maximal effective concentration (EC50) stood at 360 nM.
The same measure, in the same setting: with `O=C(c1cc2cccc(Cl)c2s1)N1C2CC3C1CCCN3C2` (stereo not drawn) [Example 51, (7-chlorobenzo[b]thiophen-2-yl)(octahydro-2,8-epiminoindolizin-9-yl)methanone] the figure was greater than 100000 nM.
